# Measurements reported in patent US11725000B2, “Apoptosis inhibitors” (National Institute of Biological Sciences, Beijing, priority 2017, dated 2023).
# System: U2OS_Bim cells
# Assay: Apoptosis inhibition assay (Bim-induced apoptosis, cell viability by ATP level)
# Assay type: cell-based
# Settings: U2OS_Bim cells; estimated (*Est.) / preliminary results; numbering of Tables 4a/4b; read-out: EC50
# In short: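 Apoptosis was triggered by doxycycline (0.1 μg/mL) induction of Bim, one hour after compound addition to U2OS_Bim cells. Survival was measured after 24 h from cellular ATP (CellTiter-Glo), relative to DMSO, with zVAD at 20 μM as rescue control. Data are duplicate means, some estimated from preliminary results.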
row,Structure (SMILES),EC50 [nM]
1,Cc1cc(-c2cc(F)c(=O)n(Cc3ccc4c(c3)OCO4)c2)nc(S(=O)(=O)CCC(OCC2CCCCC2)c2ccccc2)n1 (centres unmarked) [Compound 409],1 to 1000
2,Cc1cc(-c2cc(F)c(=O)n(Cc3ccc4c(c3)OCCN4)c2)nc(S(=O)(=O)CCC(OCc2ccccc2F)c2ccccc2)n1 (centres unmarked) [Compound 358],1 to 1000
3,Cc1cc(-c2cc(F)c(=O)n(Cc3ccc4c(c3)OCO4)c2)nc(S(=O)(=O)CCC(OCC2CN2C)c2ccccc2)n1 (centres unmarked) [Compound 420],1 to 1000
4,"Cc1cc(-c2cc(F)c(=O)n(Cc3ccc4c(c3)OCO4)c2)nc(S(=O)(=O)CCCn2cnc3ccccc32)n1 [Compound 338, 5-(2-((3-(1H-benzo[d]imidazol-1-yl)propyl)sulfonyl)-6-methylpyrimidin-4-yl)-1-(benzo[d][1,3]dioxol-5-ylmethyl)-3-fluoropyridin-2 (1H)-one]",1 to 1000
5,Cc1cc(-c2cc(F)c(=O)n(Cc3ccc4c(c3)OCO4)c2)nc(S(=O)(=O)CCC(OCC2COC2)c2ccccc2)n1 (centres unmarked) [Compound 417],1 to 1000
6,Cc1cc(-c2cc(F)c(=O)n(Cc3ccc4ccn(C)c4c3)c2)nc(S(=O)(=O)CCC(OCc2ccccc2F)c2ccccc2)n1 (centres unmarked) [Compound 348],1 to 1000
7,Cc1cc(-c2cc(F)c(=O)n(Cc3ccc4c(c3)OCO4)c2)nc(S(=O)(=O)CCC(OCC2CCNC2)c2ccccc2)n1 (centres unmarked) [Compound 413],1 to 1000
8,Cc1cc(-c2cc(F)c(=O)n(Cc3ccc4c(c3)n(C)c(=O)n4C)c2)nc(S(=O)(=O)CCC(OCc2ccccc2F)c2ccccc2)n1 (centres unmarked) [Compound 342],1 to 1000

# Same assay, conditions: U2OS_Bim cells; estimated based on preliminary results; numbering of Tables 4a/4b; read-out: EC50
row,Structure (SMILES),EC50 [nM]
1,"COc1ccc(Cn2cc(-c3cc(F)nc(S(C)(=O)=O)n3)ccc2=O)cc1OC [Compound 201, 1-(3,4-dimethoxybenzyl)-5-(6-fluoro-2-(methylsulfonyl)pyrimidin-4-yl)pyridin-2 (1H)-one]",< 10000
2,COc1ccc(Cn2cc(-c3cc(C(F)(F)F)nc(S(=O)(=O)Cn4ncnn4)n3)ccc2=O)cc1OC [Compound 195],< 10000
3,COc1ccc(Cn2cc(-c3cc(-c4cncs4)nc([S+](C)[O-])n3)ccc2=O)cc1OC (centres unmarked) [Compound 216],< 10000
4,COc1ccc(Cn2cc(-c3cc(C(F)(F)F)nc(S(=O)(=O)Cc4ccncc4)n3)ccc2=O)cc1OC [Compound 190],< 10000

# Same assay, conditions: U2OS_Bim cells; means of duplicates; numbering of Tables 4a/4b; read-out: EC50
row,Structure (SMILES),EC50 [nM]
1,"CS(=O)(=O)c1nc(-c2ccc(=O)n(Cc3ccc4c(c3)OCO4)c2)cc(C(F)(F)F)n1 [Compound 136, 1-(benzo[d][1,3]dioxol-5-ylmethyl)-5-(2-(methylsulfonyl)-6-(trifluoromethyl)pyrimidin-4-yl)pyridin-2 (1H)-one]",1 to 1000
2,"C[S+]([O-])c1nc(-c2ccn(Cc3ccc(Cl)cc3)c2)cc(C(F)(F)F)n1 (centres unmarked) [Compound 96, 4-(1-(4-chlorobenzyl)-1H-pyrrol-3-yl)-2-(methylsulfinyl)-6-(trifluoromethyl)pyrimidine]",< 100000
3,"CS(=O)(=O)c1nc(-c2cccc(Cn3ccccc3=O)c2)cc(C(F)(F)F)n1 [Compound 70, 1-(3-(2-(methylsulfonyl)-6-(trifluoromethyl)pyrimidin-4-yl)benzyl) pyridin-2 (1H)-one]",1000 to 10000
4,"COc1ccc(Cn2cc(-c3cc(C(F)(F)F)nc(S(=O)(=O)CCC(=O)N4CCCCC4)n3)ccc2=O)cc1OC [Compound 153, 1-(3,4-dimethoxybenzyl)-5-(2-((3-oxo-3-(piperidin-1-yl)propyl)sulfonyl)-6-(trifluoromethyl)pyrimidin-4-yl)pyridin-2 (1H)-one]",1 to 1000
5,"COc1ccc(Cn2cccc2-c2cc(C(F)(F)F)nc(S(C)(=O)=O)n2)cc1OC [Compound 85, 4-(1-(3,4-dimethoxybenzyl)-1H-pyrrol-2-yl)-2-(methylsulfonyl)-6-(trifluoromethyl)pyrimidine]",1000 to 10000
6,"C[S+]([O-])c1nc(N2CCOCC2)cc(C(F)(F)F)n1 (centres unmarked) [Compound 82, 4-(2-(methylsulfinyl)-6-(trifluoromethyl)pyrimidin-4-yl)morpholine]",< 100000
7,"CS(=O)(=O)c1nc(-c2ccc(=O)n(Cc3ccc(C#N)cc3)c2)cc(C(F)(F)F)n1 [Compound 119, 4-((5-(2-(methylsulfonyl)-6-(trifluoromethyl)pyrimidin-4-yl)-2-oxopyridin-1 (2H)-yl)methyl)benzonitrile]",1000 to 10000
8,"C[S+]([O-])c1nc(-c2cccc(Oc3ccccc3)c2)cc(C(F)(F)F)n1 (centres unmarked) [Compound 74, 2-(methylsulfinyl)-4-(3-phenoxyphenyl)-6-(trifluoromethyl)pyrimidine]",< 100000
9,"COc1ccc(Cn2cc(-c3cc(C)nc(S(=O)(=O)CC(F)(F)F)n3)ccc2=O)cc1OC [Compound 166, 1-(3,4-dimethoxybenzyl)-5-(6-methyl-2-((2,2,2-trifluoroethyl)sulfonyl)pyrimidin-4-yl)pyridin-2 (1H)-one]",1000 to 10000
10,"COc1ccc(Cn2cccc2-c2cc(C(F)(F)F)nc([S+](C)[O-])n2)cc1OC (centres unmarked) [Compound 86, 4-(1-(3,4-dimethoxybenzyl)-1H-pyrrol-2-yl)-2-(methylsulfinyl)-6-(trifluoromethyl)pyrimidine]",< 100000
11,"C#CCOc1cccc(-c2cc(C(F)(F)F)nc(S(C)(=O)=O)n2)c1 [Compound 71, 2-(methylsulfonyl)-4-(3-(prop-2-yn-1-yloxy)phenyl)-6-(trifluoromethyl) pyrimidine]",< 100000
12,"CNC(=O)CCCS(=O)(=O)c1nc(-c2ccc(=O)n(Cc3ccc(OC)c(OC)c3)c2)cc(C(F)F)n1 [Compound 176, 4-((4-(difluoromethyl)-6-(1-(3,4-dimethoxybenzyl)-6-oxo-1,6-dihydropyridin-3-yl)pyrimidin-2-yl)sulfonyl)-N-methylbutanamide]",1000 to 10000
13,"COc1ccc(Cn2cc(-c3cc(C(F)F)nc([S+]([O-])CCC(OCc4ccccc4F)c4ccccc4)n3)ccc2=O)cc1F (centres unmarked) [Compound 283, 5-(6-(difluoromethyl)-2-(3-(2-fluorobenzyloxy)-3-phenylpropylsulfinyl)pyrimidin-4-yl)-1-(3-fluoro-4-methoxybenzyl)pyridin-2 (1H)-one]",1 to 1000
14,"COc1ccc(Cn2cc(-c3cc(C(F)(F)F)nc(S(=O)(=O)CCC(OCc4ccccc4)c4ccccc4)n3)ccc2=O)cc1OC (centres unmarked) [Compound 281, 5-(2-((3-(benzyloxy)-3-phenylpropyl)sulfonyl)-6-(trifluoromethyl)pyrimidin-4-yl)-1-(3,4-dimethoxybenzyl)pyridin-2 (1H)-one]",1 to 1000
15,"C#CCn1cc(-c2cc(C(F)(F)F)nc(S(C)(=O)=O)n2)ccc1=O [Compound 100, 5-(2-(methylsulfonyl)-6-(trifluoromethyl)pyrimidin-4-yl)-1-(prop-2-yn-1-yl) pyridin-2 (1H)-one]",1 to 1000
16,"C[S+]([O-])c1nc(-c2ccc(=O)n(Cc3ccc(Cl)cc3F)c2)cc(C(F)(F)F)n1 (centres unmarked) [Compound 125, 1-(4-chloro-2-fluorobenzyl)-5-(2-(methylsulfinyl)-6-(trifluoromethyl)pyrimidin-4-yl)pyridin-2 (1H)-one]",1000 to 10000
17,"CNS(=O)(=O)CCC[S+]([O-])c1nc(-c2ccc(=O)n(Cc3ccc(OC)c(OC)c3)c2)cc(C(F)F)n1 (centres unmarked) [Compound 179, 3-((4-(difluoromethyl)-6-(1-(3,4-dimethoxybenzyl)-6-oxo-1,6-dihydropyridin-3-yl)pyrimidin-2-yl)sulfinyl)-N-methylpropane-1-sulfonamide]",< 100000
18,"COc1ccc(Cn2cc(-c3cc(C(F)(F)F)nc([S+]([O-])CCCC(N)=O)n3)ccc2=O)cc1OC (centres unmarked) [Compound 159, 4-((4-(1-(3,4-dimethoxybenzyl)-6-oxo-1,6-dihydropyridin-3-yl)-6-(trifluoromethyl)pyrimidin-2-yl)sulfinyl)butanamide]",< 100000
19,"COc1ccc(Cn2cc(-c3cc(C(F)F)nc([S+]([O-])CCC(OCc4ccccc4)c4ccccc4)n3)ccc2=O)cc1OC (centres unmarked) [Compound 277, 5-(2-((3-(benzyloxy)-3-phenylpropyl)sulfinyl)-6-(difluoromethyl)pyrimidin-4-yl)-1-(3,4-dimethoxybenzyl)pyridin-2 (1H)-one]",1 to 1000
20,"C#Cc1cccc(Cn2cc(-c3cc(C(F)(F)F)nc(S(C)(=O)=O)n3)ccc2=O)c1 [Compound 120, 1-(3-ethynylbenzyl)-5-(2-(methylsulfonyl)-6-(trifluoromethyl)pyrimidin-4-yl) pyridin-2 (1H)-one]",1 to 1000
21,"CS(=O)(=O)c1nc(-c2ccccc2F)cc(C(F)(F)F)n1 [Compound 43, 4-(2-fluorophenyl)-2-(methylsulfonyl)-6-(trifluoromethyl)pyrimidine]",1000 to 20000
22,"CN(C)C(=O)c1cccc(-c2cc(C(F)(F)F)nc(S(C)(=O)=O)n2)c1 [Compound 69, N,N-dimethyl-3-(2-(methylsulfonyl)-6-(trifluoromethyl)pyrimidin-4-yl)benzamide]",1000 to 10000
23,"CS(=O)(=O)c1nc(-c2ccc(=O)n(Cc3ccc(N=[N+]=[N-])cc3)c2)cc(C(F)(F)F)n1 [Compound 123, 1-(4-azidobenzyl)-5-(2-(methylsulfonyl)-6-(trifluoromethyl)pyrimidin-4-yl)pyridin-2 (1H)-one]",< 100000
24,"COc1ccc(Cn2cc(-c3cc(-c4cccs4)nc([S+]([O-])CCC(OCc4ccccc4)c4ccccc4)n3)ccc2=O)cc1OC (centres unmarked) [Compound 299, 5-(2-((3-(benzyloxy)-3-phenylpropyl)sulfinyl)-6-(thiophen-2-yl)pyrimidin-4-yl)-1-(3,4-dimethoxybenzyl)pyridin-2 (1H)-one]",< 100000
25,"C#Cc1cccc(Cn2cc(-c3cc(C(F)(F)F)nc([S+](C)[O-])n3)ccc2=O)c1 (centres unmarked) [Compound 121, 1-(3-ethynylbenzyl)-5-(2-(methylsulfinyl)-6-(trifluoromethyl)pyrimidin-4-yl)pyridin-2 (1H)-one]",1 to 1000
26,"C#CCOc1cccc(Cn2cc(-c3cc(C(F)(F)F)nc(S(C)(=O)=O)n3)ccc2=O)c1 [Compound 115, 5-(2-(methylsulfonyl)-6-(trifluoromethyl)pyrimidin-4-yl)-1-(3-(prop-2-yn-1-yloxy)benzyl) pyridin-2 (1H)-one]",1 to 1000
